Reference: PubChem BioAssay AID330 (DTP/NCI, 2004)
Where “and” joins values, the source holds several entries; their conditions need not be identical. Equal entries are not always repeated. Inconclusive results and toxic doses are left out.

Tested on: P388 leukemia ip, CD2F1 mice, survival T/C
Assay: NCI In Vivo Anticancer Drug Screen. Data for tumor model P388 Leukemia (intraperitoneal) in CD2F1 (CDF1) mice
Details: endpoint: median survival time, higher = longer survival
Outline: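 Mice carrying the transplanted tumor received test compound or vehicle. Survival was recorded in each group, and the value is the treated-group measurement divided by that of the vehicle-treated control group.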

[1] = dose: 50.0 mg/kg/injection, schedule: Q01DX005 (ip), vehicle: Klucel (hydroxypropylcellulose) (HPC)
[2] = dose: 100.0 mg/kg/injection, schedule: Q01DX005 (ip), vehicle: Klucel (hydroxypropylcellulose) (HPC)
[3] = dose: 200.0 mg/kg/injection, schedule: Q01DX005 (ip), vehicle: Klucel (hydroxypropylcellulose) (HPC)
[4] = dose: 60.0 mg/kg/injection, schedule: Q01DX005 (ip), vehicle: saline with Tween-80
[5] = dose: 100.0 mg/kg/injection, schedule: Q04DX002 (ip), vehicle: saline
[6] = dose: 200.0 mg/kg/injection, schedule: Q04DX002 (ip), vehicle: saline
[7] = dose: 50.0 mg/kg/injection, schedule: Q01DX009 (ip), vehicle: saline with Tween-80
[8] = dose: 100.0 mg/kg/injection, schedule: Q01DX009 (ip), vehicle: saline with Tween-80
[9] = dose: 200.0 mg/kg/injection, schedule: Q01DX009 (ip), vehicle: saline with Tween-80

O=S(=O)(O)Nc1ccccc1
T/C (dose: 12.5 mg/kg/injection, schedule: Q01DX009 (ip), vehicle: water): 100 % of control
T/C (dose: 25.0 mg/kg/injection, schedule: Q01DX009 (ip), vehicle: water): 104 % of control
T/C (dose: 50.0 mg/kg/injection, schedule: Q01DX009 (ip), vehicle: water): 99 % of control
T/C (dose: 100.0 mg/kg/injection, schedule: Q01DX009 (ip), vehicle: water): 100 % of control
T/C (dose: 200.0 mg/kg/injection, schedule: Q01DX009 (ip), vehicle: water): 101 % of control

c1ccc2c(c1)cnc1ccccc12
T/C [1]: 97 % of control
T/C [2]: 104 % of control
T/C [3]: 104 % of control

O=C1CCC2C(C3SCCCS3)=CCN12 (stereo not given)
T/C [4]: 97 % of control
T/C (dose: 120.0 mg/kg/injection, schedule: Q01DX005 (ip), vehicle: saline with Tween-80): 95 % of control
T/C (dose: 240.0 mg/kg/injection, schedule: Q01DX005 (ip), vehicle: saline with Tween-80): 101 % of control

CCN(CC)CCN1c2ccccc2Sc2c1ccc1ccccc21
T/C (dose: 50.0 mg/kg/injection, schedule: Q01DX005 (ip), vehicle: saline + Tween-80 + alcohol): 112 % of control
T/C (dose: 100.0 mg/kg/injection, schedule: Q01DX005 (ip), vehicle: saline + Tween-80 + alcohol): 107 % of control
T/C (dose: 200.0 mg/kg/injection, schedule: Q01DX005 (ip), vehicle: saline + Tween-80 + alcohol): 107 % of control

COC1=C(NC(C)=O)C(=O)c2nc(-c3nc(C(=O)O)c(C)c(-c4ccc(OC)c(OC)c4O)c3N)ccc2C1=O
T/C (dose: 12.5 mg/kg/injection, schedule: Q01DX009 (ip), vehicle: distilled water + Tween-80): 119 % of control
T/C (dose: 25.0 mg/kg/injection, schedule: Q01DX009 (ip), vehicle: distilled water + Tween-80): 118 % of control
T/C (dose: 50.0 mg/kg/injection, schedule: Q01DX009 (ip), vehicle: distilled water + Tween-80): 119 % of control
T/C (dose: 100.0 mg/kg/injection, schedule: Q01DX009 (ip), vehicle: distilled water + Tween-80): 119 % of control

CCCCNCC(O)c1cc2c(Cl)cc(Cl)cc2c2cc(C(F)(F)F)ccc12 (stereo not given)
T/C (dose: 6.25 mg/kg/injection, schedule: Q01DX009 (ip), vehicle: saline with Tween-80): 98 % of control
T/C (dose: 12.5 mg/kg/injection, schedule: Q01DX009 (ip), vehicle: saline with Tween-80): 106 % of control
T/C (dose: 25.0 mg/kg/injection, schedule: Q01DX009 (ip), vehicle: saline with Tween-80): 102 % of control

COc1c(OC(C)=O)c(OC(C)=O)cc2c1-c1ccc(SC)c(=O)cc1C(NC(C)=O)CC2 (stereo not given)
T/C (dose: 1.25 mg/kg/injection, schedule: Q01DX009 (ip), vehicle: Klucel (hydroxypropylcellulose) (HPC)): 118 % of control
T/C (dose: 5.0 mg/kg/injection, schedule: Q01DX009 (ip), vehicle: Klucel (hydroxypropylcellulose) (HPC)): 150 % of control
T/C (dose: 10.0 mg/kg/injection, schedule: Q01DX009 (ip), vehicle: Klucel (hydroxypropylcellulose) (HPC)): 169 % of control and 185 % of control
T/C (dose: 20.0 mg/kg/injection, schedule: Q01DX009 (ip), vehicle: Klucel (hydroxypropylcellulose) (HPC)): 178 % of control

O=c1c2sc3ccccc3c2ncn1/N=C/c1cccc(Cl)c1
T/C [1]: 96 % of control
T/C [2]: 97 % of control
T/C [3]: 88 % of control

N#C[C@@H]1C2C=CC(CC2)[C@H]1C#N
T/C (dose: 1.25 mg/kg/injection, schedule: Q01DX009 (ip), vehicle: saline with Tween-80): 100 % of control
T/C (dose: 1.25 mg/kg/injection, schedule: Q04DX003 (ip), vehicle: saline with Tween-80): 91 % of control
T/C (dose: 2.5 mg/kg/injection, schedule: Q01DX009 (ip), vehicle: saline with Tween-80): 112 % of control
T/C (dose: 2.5 mg/kg/injection, schedule: Q04DX003 (ip), vehicle: saline with Tween-80): 104 % of control
T/C (dose: 5.0 mg/kg/injection, schedule: Q04DX003 (ip), vehicle: saline with Tween-80): 91 % of control

COc1cc(C2C(C(C)=O)=C(C)Oc3cc4c(cc32)OCO4)cc(OC)c1O (stereo not given)
T/C (dose: 15.0 mg/kg/injection, schedule: Q01DX005 (ip), vehicle: saline with Tween-80): 91 % of control
T/C (dose: 30.0 mg/kg/injection, schedule: Q01DX005 (ip), vehicle: saline with Tween-80): 91 % of control
T/C [4]: 86 % of control and 90 % of control

CCNCCNc1ccc(NCCNCC)c2c1C(=O)c1ccccc1C2=O
T/C (dose: 4.0 mg/kg/injection, schedule: Q01DX009 (ip), vehicle: acid diluted with saline): 157 % of control
T/C (dose: 8.0 mg/kg/injection, schedule: Q01DX009 (ip), vehicle: acid diluted with saline): 174 % of control
T/C (dose: 12.5 mg/kg/injection, schedule: Q01DX009 (ip), vehicle: other): 168 % of control
T/C (dose: 16.0 mg/kg/injection, schedule: Q01DX009 (ip), vehicle: acid diluted with saline): 166 % of control

OCC1=CC(O)C2C=COC(C3OC(CO)C(O)C(O)C3O)C12 (stereo not given)
T/C (dose: 60.0 mg/kg/injection, schedule: Q01DX005 (ip), vehicle: saline): 103 % of control
T/C (dose: 120.0 mg/kg/injection, schedule: Q01DX005 (ip), vehicle: saline): 102 % of control
T/C (dose: 240.0 mg/kg/injection, schedule: Q01DX005 (ip), vehicle: saline): 100 % of control

CC12CCC(=O)C=C1CCCC2=O (stereo not given)
T/C (dose: 50.0 mg/kg/injection, schedule: Q04DX003 (ip), vehicle: saline): 95 % of control
T/C (dose: 100.0 mg/kg/injection, schedule: Q04DX003 (ip), vehicle: saline): 100 % of control
T/C (dose: 200.0 mg/kg/injection, schedule: Q04DX003 (ip), vehicle: saline): 90 % of control

C/C=C/N1C(=O)C2C=CC1C(C(C)=O)C2 (stereo not given)
T/C [5]: 94 % of control
T/C [6]: 98 % of control
T/C (dose: 400.0 mg/kg/injection, schedule: Q04DX002 (ip), vehicle: saline): 96 % of control

N/N=C(/N)C1=NOCC1
T/C [5]: 114 % of control
T/C [6]: 106 % of control

Cc1ccc(S(=O)(=O)OC2CCN(C(=O)OCc3ccccc3)CC2)cc1
T/C [7]: 95 % of control
T/C [8]: 98 % of control
T/C [9]: 98 % of control

COC(=O)C1=C/CCCN(CCc2ccccc2)/C=C\1C(=O)OC
T/C (dose: 100.0 mg/kg/injection, schedule: Q01DX001 (ip), vehicle: alcohol): 103 % of control
T/C (dose: 200.0 mg/kg/injection, schedule: Q01DX001 (ip), vehicle: alcohol): 101 % of control
T/C (dose: 400.0 mg/kg/injection, schedule: Q01DX001 (ip), vehicle: alcohol): 97 % of control

c1ccc(C2=C(c3ccccc3)C3SC4CCCC3C4(N3CCOCC3)S2)cc1 (stereo not given)
T/C (dose: 100.0 mg/kg/injection, schedule: Q01DX001 (ip), vehicle: Klucel (hydroxypropylcellulose) (HPC)): 95 % of control
T/C (dose: 200.0 mg/kg/injection, schedule: Q01DX001 (ip), vehicle: Klucel (hydroxypropylcellulose) (HPC)): 99 % of control
T/C (dose: 400.0 mg/kg/injection, schedule: Q01DX001 (ip), vehicle: Klucel (hydroxypropylcellulose) (HPC)): 93 % of control

Cn1c(N)nc(N)c(NC=O)c1=O
T/C [1]: 101 % of control
T/C [2]: 103 % of control
T/C [3]: 101 % of control

C1OC2OCC1O2
T/C [7]: 87 % of control
T/C [8]: 93 % of control
T/C [9]: 105 % of control

CC1=NC(=O)CC2=C1C(C)N(Cc1ccccc1)C2=O (stereo not given)
T/C (dose: 50.0 mg/kg/injection, schedule: Q01DX009 (ip), vehicle: saline): 98 % of control
T/C (dose: 100.0 mg/kg/injection, schedule: Q01DX009 (ip), vehicle: saline): 94 % of control
T/C (dose: 200.0 mg/kg/injection, schedule: Q01DX009 (ip), vehicle: saline): 99 % of control

COc1ccc2c(c1)[C@@]13CCCC[C@H]1[C@@H](C2)[N+](C)=CC3=NO
T/C (dose: 60.0 mg/kg/injection, schedule: Q01DX005 (ip), vehicle: Klucel (hydroxypropylcellulose) (HPC)): 105 % of control

O=C(N/N=C/c1ccccc1Cl)C(=O)Nc1cccc(C(F)(F)F)c1
T/C [1]: 95 % of control
T/C [2]: 96 % of control
T/C [3]: 99 % of control

NC(=O)c1c[se]c(C2OC(CO)C(O)C2O)n1 (stereo not given)
T/C (dose: 25.0 mg/kg/injection, schedule: Q01DX005 (ip), vehicle: saline): 154 % of control

NC(CSCCCS(=O)(=O)O)C(=O)O (stereo not given)
T/C (dose: 50.0 mg/kg/injection, schedule: Q01DX005 (ip), vehicle: saline): 101 % of control
T/C (dose: 100.0 mg/kg/injection, schedule: Q01DX005 (ip), vehicle: saline): 98 % of control
T/C (dose: 200.0 mg/kg/injection, schedule: Q01DX005 (ip), vehicle: saline): 100 % of control

CC1=Nc2ccc(C(F)(F)F)cc2NC(=O)C1
T/C [1]: 100 % of control
T/C [2]: 99 % of control and 97 % of control
T/C [3]: 100 % of control and 96 % of control
